# From patent US11384063B2, “Modulators of estrogen receptor proteolysis and associated methods of use” (Arvinas Operations, Inc., priority 2017, dated 2022)
# Like-named read-outs stand apart in the source and are kept apart here.
# Tests used:
# [1] = molecular target: T1, ERα (Homo sapiens, UniProt P03372); assay: Estrogen receptor-alpha (ERα) degradation assay in MCF7 cells using In-Cell Western assay; type: cell-based; set-up: assessed for their activity in degrading ERα in MCF-7 cells via western blot; endogenous in cells; host or cells: MCF7 cells; details: ER-alpha degradation in MCF7 cells, 5 days of incubation
# T1 sequence (P03372 1-595): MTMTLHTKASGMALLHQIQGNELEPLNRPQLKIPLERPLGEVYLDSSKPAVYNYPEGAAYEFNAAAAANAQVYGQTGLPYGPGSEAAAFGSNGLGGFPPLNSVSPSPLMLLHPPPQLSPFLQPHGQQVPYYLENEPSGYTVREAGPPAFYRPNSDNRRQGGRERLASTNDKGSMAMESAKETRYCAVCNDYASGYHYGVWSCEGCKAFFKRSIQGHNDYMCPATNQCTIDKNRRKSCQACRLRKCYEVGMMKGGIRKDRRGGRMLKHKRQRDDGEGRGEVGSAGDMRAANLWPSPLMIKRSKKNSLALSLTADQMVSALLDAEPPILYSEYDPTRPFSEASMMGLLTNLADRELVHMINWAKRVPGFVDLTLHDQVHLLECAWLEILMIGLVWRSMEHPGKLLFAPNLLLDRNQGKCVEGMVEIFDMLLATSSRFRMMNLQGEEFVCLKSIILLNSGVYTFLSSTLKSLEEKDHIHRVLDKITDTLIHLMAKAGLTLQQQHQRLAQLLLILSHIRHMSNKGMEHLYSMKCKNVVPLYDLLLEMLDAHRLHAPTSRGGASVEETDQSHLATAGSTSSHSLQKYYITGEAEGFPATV
# Protocol: Estrogen Receptor-Alpha (ERα) Degradation Assay Using in-Cell Western™ Assay for Table 5.
# Degradation of ERα by claimed compounds were determined in MCF7 cells using an In-Cell Western™ assay. Briefly, MCF7 cells were plated in 96-well plates (2000 cells per well in 100 μl media) and incubated at 37° C. under an atmosphere of 5% CO2 in a humidified incubator overnight. One-hundred (100) μI of media containing test compound (at 2x concentration) was added to the appropriate wells to provide 11 serially decreasing concentrations (top final concentration, 1 μM then 3-fold less for the next 10 concentrations); a vehicle control (DMSO) was also added for each compound. For each experiment, all compounds were assayed on duplicate plates. Cells were then incubated for 3 or 5 days in the above-mentioned environment. The assay was terminated by removal of media, a single wash with ice-cold PBS and the addition of 50 μl paraformaldehyde (PFA: 4% in PBS). After 15 minutes in PFA at room temperature, the cells were permeabilized in Tris-phosphate-buffered saline with Tween (0.1%) (TBST) supplemented with Triton X-100 (0.5%) for 15 minutes. Cells were then blocked in BSA (TBST with BSA, 3%) for one hour. Primary antibodies for the detection of ERa (rabbit monoclonal, 1:1000, Cell Signaling Technology Catalog #8644) and tubulin (mouse monoclonal, 1:5000, Sigma Catalog #T6074) in TBST with BSA (3%) were added. The cells were incubated overnight at 4° C. The cells were then washed thrice with TBST at room temperature and then incubated with anti-rabbit and anti-mouse fluorescently-labelled secondary antibodies (IRDye®; LI-COR; Lincoln, Nebr.) in LI-COR blocking buffer (Catalog #927-50000) for one hour at room temperature. Following 3 washes with TBST, the buffer was removed and the plates were read on an Odyssey® infrared imaging system (LI-COR®, Lincoln, Nebr.) at 700 nm and 800 nm. Using commercial software (ImageStudio™; LI-COR, Lincoln, Nebr.), the staining intensity for ERa and tubulin in each well was quantified and exported for analysis. For each data point, ERa intensity was normalized to tubulin intensity and for each compound all normalized intensity values were normalized to the vehicle control. DC50 and Dmax values were determined following a 4-parameter IC50 curve fit using ACAS dose response module (McNeil & Co Inc.).
# [2] = molecular target: T1, ERα; assay: ERE luciferase reporter gene assay in T47D-KBluc cells (target engagement); type: cell-based; set-up: T47D human breast cancer cells stably transfected with estrogen responsive element/promoter/luciferase reporter gene; host or cells: T47D-KBluc cells; details: 10% FBS, 24 hours, read-out: ER-α Luciferase IC50
# Procedure, shortened: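 T47D-KBluc breast cancer cells, which carry a stable ERE-luciferase reporter, were grown in RPMI with 10% FBS (about 10 pM estrogen) and exposed to PROTACs for 24 h. The 12-point, 3-fold series ran from 300 nM to 2 pM. Luciferase was read after lysis, and IC50 was fitted from duplicates.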
# [3] = Table 1 cereblon centric PROTACs
# [4] = Table 3 cereblon centric PROTACs
DC50 [1] [nM],Dmax [1] [%],"IC50 [2, 3] [nM]","IC50 [2, 4] [nM]",Structure (SMILES)
1 to 10,50 to 75,2.7,–,"O=C1CCC(N2Cc3cc(OCCOCCOc4ccc(Oc5c(-c6ccc(Br)cc6)sc6cc(O)ccc56)cc4)ccc3C2=O)C(=O)N1 (stereo not drawn) [Compound 33, 3-[5-[2-[2-[4-[2-(4-bromophenyl)-6-hydroxy-benzothiophen-3-yl]oxyphenoxy]ethoxy]ethoxy]-1-oxo-isoindolin-2-yl]piperidine-2,6-dione]"
1 to 10,50 to 75,3,–,"O=C1CCC(N2Cc3cc(CNC(=O)C4CCN(CCOc5ccc(Oc6c(-c7ccc(Br)cc7)sc7cc(O)ccc67)cc5)CC4)ccc3C2=O)C(=O)N1 (stereo not drawn) [Compound 57, 1-(2-(4-(2-(4-bromophenyl)-6-hydroxybenzo[b]thiophen-3-yloxy)phenoxy)ethyl)-N-((2-(2,6-dioxopiperidin-3-yl)-1-oxoisoindolin-5-yl)methyl)piperidine-4-carboxamide]"
10 to 100,50 to 75,18.3,–,"O=C1CCC(N2C(=O)c3ccc(N4CCN(CCCCCOc5ccc(Oc6c(-c7ccc(Br)cc7)sc7cc(O)ccc67)cc5)CC4)cc3C2=O)C(=O)N1 (stereo not drawn) [Compound 61, 5-{4-[5-(4-{[2-(4-bromophenyl)-6-hydroxy-1-benzothiophen-3-yl]oxy}phenoxy)pentyl]piperazin-1-yl}-2-(2,6-dioxopiperidin-3-yl)-2,3-dihydro-1H-isoindole-1,3-dione]"
1 to 10,> 75,11,–,"O=C1CCC(N2Cc3cc(NCCCN4CCCN(CCOc5ccc(Oc6c(-c7ccc(Br)cc7)sc7cc(O)ccc67)cc5)CC4)ccc3C2=O)C(=O)N1 (stereo not drawn) [Compound 74, 3-(5-(3-(4-(2-(4-(2-(4-bromophenyl)-6-hydroxybenzo[b]thiophen-3-yloxy)phenoxy)ethyl)-1,4-diazepan-1-yl)propylamino)-1-oxoisoindolin-2-yl)piperidine-2,6-dione]"
1 to 10,50 to 75,4.8,–,"O=C1CCC(N2Cc3cc(NCCCOCCCOCCOc4ccc(Oc5c(-c6ccc(Br)cc6)sc6cc(O)ccc56)cc4)ccc3C2=O)C(=O)N1 (stereo not drawn) [Compound 89, 3-[5-[3-[3-[2-[4-[2-(4bromophenyl)-6-hydroxy-benzothiophen-3-yl]oxyphenoxy]ethoxy]propoxy]propylamino]-1-oxo-isoindolin-2-yl]piperidine-2,6-dione]"
1 to 10,50 to 75,–,–,"O=C1CCC(N2Cc3cc(NCCCOCCCOCCCOc4ccc(Oc5c(-c6ccc(Br)cc6)sc6cc(O)ccc56)cc4)ccc3C2=O)C(=O)N1 (stereo not drawn) [Compound 94, 3-[5-[3-[3-[3-[4-[2-(4-bromophenyl)-6-hydroxy-benzothiophen-3-yl]oxyphenoxy]propoxy]propoxy]propylamino]-1-oxo-isoindolin-2-yl]piperidine-2,6-dione]"
–,< 50,–,–,"O=C1CCC(N2Cc3cc(NCCCOCCOCCOc4ccc(Oc5c(-c6ccc(Br)cc6)sc6cc(O)ccc56)cc4)ccc3C2=O)C(=O)N1 (stereo not drawn) [Compound 95, 3-[5-[3-[2-[2-[4[2-(4-bromophenyl)-6-hydroxy-benzothiophen-3-yl]oxyphenoxy]ethoxy]ethoxy]propylamino]-1-oxo-isoindolin-2-yl]piperidine-2,6-dione]"
< 1,> 75,–,0.54,"O=C1CCC(N2Cc3cc(NCCCN4CCN(CCOc5ccc(Oc6c(-c7ccc(F)cc7)sc7cc(O)ccc67)cc5)CC4)ccc3C2=O)C(=O)N1 (stereo not drawn) [Compound 174, 3-[5-[3-[4-[2-[4-[2-(4-fluorophenyl)-6-hydroxy-benzothiophen-3-yl]oxyphenoxy]ethyl]piperazin-1-yl]propylamino]-1-oxo-isoindolin-2-yl]piperidine-2,6-dione]"
1 to 10,> 75,–,2.3,"O=C1CCC(N2C(=O)c3ccc(NCCCN4CCN(CCOc5ccc(Oc6c(-c7ccc(Br)cc7)sc7cc(O)ccc67)cc5)CC4)cc3C2=O)C(=O)N1 (stereo not drawn) [Compound 177, 5-[3-[4-[2-[4-[2-(4-bromophenyl)-6-hydroxy-benzothiophen-3-yl]oxyphenoxy]ethyl]piperazin-1-yl]propylamino]-2-(2,6-dioxo-3-piperidyl)isoindoline-1,3-dione]"
–,–,–,4.7,O=C1CCC(N2Cc3c(cc(F)c(N4CCN(C5CCN(CCOc6ccc(Oc7c(-c8ccc(C(F)(F)F)cc8)sc8cc(O)ccc78)cc6)CC5)CC4)c3F)C2=O)C(=O)N1 (stereo not drawn) [Compound 203]
–,–,–,16.4,O=C1CCC(N2Cc3cc(N4CCN(CC5CCN(CCOc6ccc(Oc7c(-c8ccc(C(F)(F)F)cc8)sc8cc(O)ccc78)cc6)CC5)CC4)c(F)cc3C2=O)C(=O)N1 (stereo not drawn) [Compound 204]
–,–,–,13.3,O=C1CCC(N2Cc3c(cc(F)c(N4CCN(C5CC6(C5)CN(CCOc5ccc(Oc7c(-c8ccc(C(F)(F)F)cc8)sc8cc(O)ccc78)cc5)C6)CC4)c3F)C2=O)C(=O)N1 (stereo not drawn) [Compound 206]
–,–,–,11.4,O=C1CCC(N2Cc3cc(N4CCN(CCCOc5ccc(Oc6c(-c7ccc(C(F)(F)F)cc7)sc7cc(O)ccc67)cc5)CC4)ccc3C2=O)C(=O)N1 (stereo not drawn) [Compound 207]
–,–,–,8.4,O=C1CCC(N2Cc3c(ccc(N4CCN(CCCOc5ccc(Oc6c(-c7ccc(Br)cc7)sc7cc(O)ccc67)cc5)CC4)c3F)C2=O)C(=O)N1 (stereo not drawn) [Compound 208]
–,–,–,2.8,O=C1CCC(N2C(=O)c3ccc(N4CC(CN5CCC(c6ccc(Oc7c(-c8ccc(Br)cc8)sc8cc(O)ccc78)cc6)CC5)C4)cc3C2=O)C(=O)N1 (stereo not drawn) [Compound 209]
–,–,–,2.3,O=C1CCC(N2Cc3cc(N4CCN(CCOc5ccc(Oc6c(-c7ccc(Br)cc7)sc7cc(O)ccc67)cc5)CC4)ccc3C2=O)C(=O)N1 (stereo not drawn) [Compound 210]
–,–,–,31.6,O=C1CCC(N2C(=O)c3ccc(N4CCN(CCCCc5ccc(Oc6c(-c7ccc(Br)cc7)sc7cc(O)ccc67)cc5)CC4)cc3C2=O)C(=O)N1 (stereo not drawn) [Compound 211]
–,–,–,15,O=C1CCC(N2C(=O)c3ccc(N4CCC(N5CC(Oc6ccc(Oc7c(-c8ccc(Br)cc8)sc8cc(O)ccc78)cc6)C5)CC4)cc3C2=O)C(=O)N1 (stereo not drawn) [Compound 212]
–,–,–,19.1,O=C1CCC(N2Cc3cc(N4CCN(CCCOc5ccc(Oc6c(-c7ccc(OC(F)(F)F)cc7)sc7cc(O)ccc67)cc5)CC4)c(F)cc3C2=O)C(=O)N1 (stereo not drawn) [Compound 219]
–,–,–,8.9,O=C1CCC(N2Cc3cc(N4CCN(CCCOc5ccc(Oc6c(-c7ccc(Br)cc7)sc7cc(O)ccc67)cc5)CC4)cc(F)c3C2=O)C(=O)N1 (stereo not drawn) [Compound 222]
–,–,–,2.1,O=C1CCC(N2Cc3cc(N4CCC(N5CC(Oc6ccc(Oc7c(-c8ccc(Br)cc8)sc8cc(O)ccc78)cc6)C5)CC4)ccc3C2=O)C(=O)N1 (stereo not drawn) [Compound 233]
–,–,–,1.2,O=C1CCC(N2Cc3cc(N4CC(N5CCC(Oc6ccc(Oc7c(-c8ccc(Br)cc8)sc8cc(O)ccc78)cc6)CC5)C4)ccc3C2=O)C(=O)N1 (stereo not drawn) [Compound 240]
–,–,–,6.7,O=C1CCC(N2Cc3cc(N4CC(CN5CCC(c6ccc(Oc7c(-c8ccc(Br)cc8)sc8cc(O)ccc78)cc6)CC5)C4)ccc3C2=O)C(=O)N1 (stereo not drawn) [Compound 241]
–,–,–,18.7,O=C1CCC(N2Cc3nc(N4CCN(CC5CCN(c6c(F)cc(Oc7c(-c8ccc(Br)cc8)sc8cc(O)ccc78)cc6F)CC5)CC4)ccc3C2=O)C(=O)N1 (stereo not drawn) [Compound 242]
